In publication PMC3482625 (Analytical chemistry, 2011):

Molecular target: Matrix metalloproteinase-9 (MMP-9) (Homo sapiens, UniProt P14780)
Assay: fluorogenic peptide
Type: biochemical

Chain of Matrix metalloproteinase-9 (MMP-9) (P14780 107-707): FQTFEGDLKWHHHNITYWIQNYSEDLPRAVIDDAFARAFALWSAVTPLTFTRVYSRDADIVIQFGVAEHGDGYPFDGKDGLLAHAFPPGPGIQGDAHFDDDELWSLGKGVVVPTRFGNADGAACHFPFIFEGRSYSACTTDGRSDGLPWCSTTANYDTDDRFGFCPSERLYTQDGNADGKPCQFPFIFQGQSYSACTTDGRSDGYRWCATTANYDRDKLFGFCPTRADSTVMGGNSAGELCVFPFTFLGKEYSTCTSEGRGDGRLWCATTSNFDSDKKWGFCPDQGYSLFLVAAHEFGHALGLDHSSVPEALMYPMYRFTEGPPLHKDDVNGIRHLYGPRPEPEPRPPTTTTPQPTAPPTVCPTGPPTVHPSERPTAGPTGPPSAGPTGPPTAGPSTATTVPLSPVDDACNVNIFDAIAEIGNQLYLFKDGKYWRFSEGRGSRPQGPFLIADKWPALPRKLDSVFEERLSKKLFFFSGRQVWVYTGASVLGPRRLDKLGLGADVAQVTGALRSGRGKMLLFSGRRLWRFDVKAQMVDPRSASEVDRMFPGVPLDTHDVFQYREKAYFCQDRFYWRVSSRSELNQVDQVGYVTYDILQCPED

IC50: 11.9 ± 1 nM
SMILES: CC(C)(NS(=O)(=O)c1ccc(Oc2ccc(F)cc2)cc1)C(=O)NO [CP471474]
